Our source for the inhibition values is ChEMBL document CHEMBL5647694, “Novel orally bioavailable EZH1/2 dual inhibitors with greater antitumor efficacy than an EZH2 selective inhibitor” (Cancer Sci, 2017).

Test [1] deals with Tyrosine-protein kinase Lyn (Homo sapiens) (UniProt P07948). The test is described as follows: Inhibition of N-terminal GST-tagged full length human LynB(1 to 491 residues ) expressed in baculovirus-infected Sf21 cells using Srctide as substrate at 1 uM in presence of ATP by Mobility shift assay.
For test [2], the target named is NUAK family SNF1-like kinase 2 (Homo sapiens) (UniProt Q9H093). The test is described as follows: Inhibition of N-terminal GST-fused full length human Nuak2 (1 to 628 residues) expressed in baculovirus expression system using CHKtide as substrate at 1 uM in presence of ATP by Mobility shift assay.
Test [3] deals with Platelet-derived growth factor receptor alpha (Homo sapiens) (UniProt P16234). The test is described as follows: Inhibition of N-terminal GST-tagged human PDGFR-alpha cytoplasmic domain (550 to 1089 residues) expressed in baculovirus-infected Sf21 cells using CSKtide as substrate at 1 uM in presence of ATP by Mobility shift assay.
For test [4], the target named is Serine/threonine-protein kinase 4 (Homo sapiens) (UniProt Q13043). The test is described as follows: Inhibition of N-terminal GST-fused full length human MST1 (1 to 487 residues) expressed in baculovirus expression system using IRS1 as substrate at 1 uM in presence of ATP by Mobility shift assay.
The target in test [5] is Serine/threonine-protein kinase Nek4 (Homo sapiens) (UniProt P51957). The experiment in a line: Inhibition of N-terminal GST-tagged full length human NEK4 (1 to 841 residues) expressed in baculovirus expression system using GS peptide as substrate at 1 uM in presence of ATP by Mobility shift assay.
The target in test [6] is Dual specificity protein kinase CLK3 (Homo sapiens) (UniProt P49761). The test is described as follows: Inhibition of N-terminal GST-fused full length human CLK3 (1 to 490 residues) expressed in baculovirus expression system using DYRKtide-F as substrate at 1 uM in presence of ATP by Mobility shift assay.
Test [7] addresses Proto-oncogene tyrosine-protein kinase ROS (Homo sapiens) (UniProt P08922). The test is described as follows: Inhibition of N-terminal GST-tagged human ROS cytoplasmic domain (1883 to 2347 residues) expressed in baculovirus-infected Sf21 cells using IRS1 as substrate at 1 uM in presence of ATP by Mobility shift assay.
Test [8] has as its target Inhibitor of nuclear factor kappa-B kinase subunit epsilon (Homo sapiens) (UniProt Q14164). The experiment in a line: Inhibition of N-terminal GST-fused full length human IKK-epsilon(1 to 716 residues) expressed in baculovirus expression system using IkBalpha peptide as substrate at 1 uM in presence of ATP by Mobility shift assay.
Test [9] deals with Protein-tyrosine kinase 2-beta (Homo sapiens) (UniProt Q14289). The experiment in a line: Inhibition of N-terminal GST-tagged full length human PYK2 (1 to 967 residues) expressed in baculovirus-infected Sf21 cells using Blk/Lyntide as substrate at 1 uM in presence of ATP by Mobility shift assay.
Test [10] concerns the target Fibroblast growth factor receptor 3 (Homo sapiens) (UniProt P22607). The test is described as follows: Inhibition of N-terminal GST-fused human FGFR3 cytoplasmic domain (436 to 806 residues) expressed in baculovirus-infected Sf21 cells using CSKtide as substrate at 1 uM in presence of ATP by Mobility shift assay.
The target in test [11] is Receptor tyrosine-protein kinase erbB-2 (Homo sapiens) (UniProt P04626). The experiment in a line: Inhibition of N-terminal His-tagged human HER2 cytoplasmic domain (676 to 1255 residues) expressed in baculovirus-infected Sf21 cells using Srctide as substrate at 1 uM in presence of ATP by Mobility shift assay.
The target of test [12] is Muscle, skeletal receptor tyrosine-protein kinase (Homo sapiens) (UniProt O15146). The test is described as follows: Inhibition of N-terminal GST-fused human MUSK catalytic domain (527 to 869 residues) expressed in baculovirus-infected Sf21 cells using CSKtide as substrate at 1 uM in presence of ATP by Mobility shift assay.
The target of test [13] is CDK3/Cyclin E (Homo sapiens) (UniProt P24864+Q00526). The test is described as follows: Inhibition of N-terminal GST-tagged full length human CDK3 (1 to 305 residues)/N-terminal GST-tagged human CyclinE1 (1 to 410 residues) expressed in baculovirus-infected Sf21 cells using Modified Histone H1 as substrate at 1 uM in presence of ATP by Mobility shift assay.
Test [14] deals with Dual specificity protein kinase CLK2 (Homo sapiens) (UniProt P49760). The experiment in a line: Inhibition of N-terminal GST-fused full length human CLK2 (1 to 499 residues) expressed in baculovirus expression system using DYRKtide-F as substrate at 1 uM in presence of ATP by Mobility shift assay.
The target of test [15] is Tyrosine-protein kinase Lyn (Homo sapiens) (UniProt P07948). The test is described as follows: Inhibition of N-terminal GST-tagged full length human LynA(1 to 512 residues ) expressed in baculovirus-infected Sf21 cells using Srctide as substrate at 1 uM in presence of ATP by Mobility shift assay.
The target in test [16] is Phosphorylase b kinase gamma catalytic chain, skeletal muscle/heart isoform (Homo sapiens) (UniProt Q16816). The experiment in a line: Inhibition of N-terminal GST-fused full length human PHKG1 (1 to 387 residues) expressed in baculovirus expression system using GS peptide as substrate at 1 uM in presence of ATP by Mobility shift assay.
For test [17], the target named is Inhibitor of nuclear factor kappa-B kinase subunit beta (Homo sapiens) (UniProt O14920). The test is described as follows: Inhibition of N-terminal His-tagged truncated human IKK-beta (1 to 662 residues) expressed in baculovirus expression system using Modified IkBalpha-derived peptide as substrate at 1 uM in presence of ATP by Mobility shift assay.
Test [18] deals with Insulin-like growth factor 1 receptor (Homo sapiens) (UniProt P08069). The test is described as follows: Inhibition of N-terminal GST-fused human IGF1R cytoplasmic domain (959 to 1367 residues) expressed in baculovirus-infected Sf21 cells using IRS1 as substrate at 1 uM in presence of ATP by Mobility shift assay.
Test [19] addresses Vascular endothelial growth factor receptor 1 (Homo sapiens) (UniProt P17948). The test is described as follows: Inhibition of N-terminal GST-fused human FLT1 cytoplasmic domain (781 to 1338 residues) expressed in baculovirus-infected Sf21 cells using CSKtide as substrate at 1 uM in presence of ATP by Mobility shift assay.
The target of test [20] is 3-phosphoinositide-dependent protein kinase 1 (PDPK1) (Homo sapiens) (UniProt O15530). The test is described as follows: Inhibition of N-terminal GST-fused full length human PDK1 (1 to 556 residues) expressed in baculovirus expression system using T308tide as substrate at 1 uM in presence of ATP by Mobility shift assay.
Test [21] deals with Phosphorylase b kinase gamma catalytic chain, liver/testis isoform (Homo sapiens) (UniProt P15735). The experiment in a line: Inhibition of N-terminal GST-fused full length human PHKG2 (1 to 406 residues) expressed in baculovirus expression system using GS peptide as substrate at 1 uM in presence of ATP by Mobility shift assay.
Test [22] deals with Cytoplasmic tyrosine-protein kinase BMX (Homo sapiens) (UniProt P51813). The test is described as follows: Inhibition of N-terminal GST-fused full length human BMX ( 1 to 675 residues) expressed in baculovirus-infected Sf21 cells using Srctide as substrate at 1 uM in presence of ATP by Mobility shift assay.

Chain of Tyrosine-protein kinase Lyn (Homo sapiens) (P07948 2-512 limits assumed): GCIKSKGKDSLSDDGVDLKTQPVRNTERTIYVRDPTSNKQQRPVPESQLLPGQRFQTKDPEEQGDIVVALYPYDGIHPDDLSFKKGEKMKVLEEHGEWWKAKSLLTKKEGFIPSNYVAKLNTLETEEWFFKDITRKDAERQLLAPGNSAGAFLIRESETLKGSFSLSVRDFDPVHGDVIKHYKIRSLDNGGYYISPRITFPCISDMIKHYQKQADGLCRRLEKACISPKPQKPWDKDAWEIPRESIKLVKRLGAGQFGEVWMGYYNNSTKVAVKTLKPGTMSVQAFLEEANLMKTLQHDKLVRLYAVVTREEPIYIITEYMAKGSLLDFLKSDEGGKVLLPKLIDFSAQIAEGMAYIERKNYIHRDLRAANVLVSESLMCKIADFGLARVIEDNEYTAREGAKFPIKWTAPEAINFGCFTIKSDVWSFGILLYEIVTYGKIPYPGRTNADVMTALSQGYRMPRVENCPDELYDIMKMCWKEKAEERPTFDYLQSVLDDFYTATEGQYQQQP
Chain of Muscle, skeletal receptor tyrosine-protein kinase (Homo sapiens) (O15146 whole entry, the tested form may be a part): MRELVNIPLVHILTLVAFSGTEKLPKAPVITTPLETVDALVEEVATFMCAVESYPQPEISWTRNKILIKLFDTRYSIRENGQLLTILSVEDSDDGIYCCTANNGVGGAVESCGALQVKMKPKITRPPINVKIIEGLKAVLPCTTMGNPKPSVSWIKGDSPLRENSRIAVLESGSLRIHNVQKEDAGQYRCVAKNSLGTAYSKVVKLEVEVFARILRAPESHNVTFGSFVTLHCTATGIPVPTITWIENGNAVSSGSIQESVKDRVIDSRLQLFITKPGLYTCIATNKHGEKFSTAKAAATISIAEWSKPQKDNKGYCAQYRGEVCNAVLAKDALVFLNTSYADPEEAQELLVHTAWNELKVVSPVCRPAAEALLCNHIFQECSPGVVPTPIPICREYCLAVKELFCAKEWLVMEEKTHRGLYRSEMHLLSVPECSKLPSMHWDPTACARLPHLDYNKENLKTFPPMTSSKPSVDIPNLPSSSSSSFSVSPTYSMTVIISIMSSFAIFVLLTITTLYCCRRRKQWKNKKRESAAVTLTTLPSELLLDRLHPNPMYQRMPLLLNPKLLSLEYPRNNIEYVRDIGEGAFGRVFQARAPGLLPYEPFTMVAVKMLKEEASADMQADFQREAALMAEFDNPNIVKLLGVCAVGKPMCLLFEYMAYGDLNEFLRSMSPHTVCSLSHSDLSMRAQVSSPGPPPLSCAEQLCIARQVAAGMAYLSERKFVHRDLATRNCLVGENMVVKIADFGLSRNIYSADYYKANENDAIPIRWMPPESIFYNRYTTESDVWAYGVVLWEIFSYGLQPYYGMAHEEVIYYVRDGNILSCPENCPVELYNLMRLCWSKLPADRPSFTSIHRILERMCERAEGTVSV
Chain of Dual specificity protein kinase CLK3 (Homo sapiens) (P49761 whole entry, looked up, the tested form may be a part): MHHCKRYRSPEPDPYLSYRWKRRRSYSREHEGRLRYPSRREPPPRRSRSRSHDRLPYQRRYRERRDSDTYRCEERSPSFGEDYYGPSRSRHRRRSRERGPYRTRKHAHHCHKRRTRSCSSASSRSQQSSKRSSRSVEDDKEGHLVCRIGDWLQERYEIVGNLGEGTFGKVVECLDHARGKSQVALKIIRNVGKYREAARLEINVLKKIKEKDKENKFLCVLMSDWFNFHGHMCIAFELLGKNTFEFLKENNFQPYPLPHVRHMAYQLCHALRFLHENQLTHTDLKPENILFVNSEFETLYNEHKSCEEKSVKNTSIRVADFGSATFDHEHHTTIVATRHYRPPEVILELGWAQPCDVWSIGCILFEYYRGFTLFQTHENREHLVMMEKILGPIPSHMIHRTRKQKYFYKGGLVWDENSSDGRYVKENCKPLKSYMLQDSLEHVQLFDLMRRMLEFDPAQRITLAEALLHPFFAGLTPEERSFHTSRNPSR
Chain of Proto-oncogene tyrosine-protein kinase ROS (Homo sapiens) (P08922 whole entry, the tested form may be a part): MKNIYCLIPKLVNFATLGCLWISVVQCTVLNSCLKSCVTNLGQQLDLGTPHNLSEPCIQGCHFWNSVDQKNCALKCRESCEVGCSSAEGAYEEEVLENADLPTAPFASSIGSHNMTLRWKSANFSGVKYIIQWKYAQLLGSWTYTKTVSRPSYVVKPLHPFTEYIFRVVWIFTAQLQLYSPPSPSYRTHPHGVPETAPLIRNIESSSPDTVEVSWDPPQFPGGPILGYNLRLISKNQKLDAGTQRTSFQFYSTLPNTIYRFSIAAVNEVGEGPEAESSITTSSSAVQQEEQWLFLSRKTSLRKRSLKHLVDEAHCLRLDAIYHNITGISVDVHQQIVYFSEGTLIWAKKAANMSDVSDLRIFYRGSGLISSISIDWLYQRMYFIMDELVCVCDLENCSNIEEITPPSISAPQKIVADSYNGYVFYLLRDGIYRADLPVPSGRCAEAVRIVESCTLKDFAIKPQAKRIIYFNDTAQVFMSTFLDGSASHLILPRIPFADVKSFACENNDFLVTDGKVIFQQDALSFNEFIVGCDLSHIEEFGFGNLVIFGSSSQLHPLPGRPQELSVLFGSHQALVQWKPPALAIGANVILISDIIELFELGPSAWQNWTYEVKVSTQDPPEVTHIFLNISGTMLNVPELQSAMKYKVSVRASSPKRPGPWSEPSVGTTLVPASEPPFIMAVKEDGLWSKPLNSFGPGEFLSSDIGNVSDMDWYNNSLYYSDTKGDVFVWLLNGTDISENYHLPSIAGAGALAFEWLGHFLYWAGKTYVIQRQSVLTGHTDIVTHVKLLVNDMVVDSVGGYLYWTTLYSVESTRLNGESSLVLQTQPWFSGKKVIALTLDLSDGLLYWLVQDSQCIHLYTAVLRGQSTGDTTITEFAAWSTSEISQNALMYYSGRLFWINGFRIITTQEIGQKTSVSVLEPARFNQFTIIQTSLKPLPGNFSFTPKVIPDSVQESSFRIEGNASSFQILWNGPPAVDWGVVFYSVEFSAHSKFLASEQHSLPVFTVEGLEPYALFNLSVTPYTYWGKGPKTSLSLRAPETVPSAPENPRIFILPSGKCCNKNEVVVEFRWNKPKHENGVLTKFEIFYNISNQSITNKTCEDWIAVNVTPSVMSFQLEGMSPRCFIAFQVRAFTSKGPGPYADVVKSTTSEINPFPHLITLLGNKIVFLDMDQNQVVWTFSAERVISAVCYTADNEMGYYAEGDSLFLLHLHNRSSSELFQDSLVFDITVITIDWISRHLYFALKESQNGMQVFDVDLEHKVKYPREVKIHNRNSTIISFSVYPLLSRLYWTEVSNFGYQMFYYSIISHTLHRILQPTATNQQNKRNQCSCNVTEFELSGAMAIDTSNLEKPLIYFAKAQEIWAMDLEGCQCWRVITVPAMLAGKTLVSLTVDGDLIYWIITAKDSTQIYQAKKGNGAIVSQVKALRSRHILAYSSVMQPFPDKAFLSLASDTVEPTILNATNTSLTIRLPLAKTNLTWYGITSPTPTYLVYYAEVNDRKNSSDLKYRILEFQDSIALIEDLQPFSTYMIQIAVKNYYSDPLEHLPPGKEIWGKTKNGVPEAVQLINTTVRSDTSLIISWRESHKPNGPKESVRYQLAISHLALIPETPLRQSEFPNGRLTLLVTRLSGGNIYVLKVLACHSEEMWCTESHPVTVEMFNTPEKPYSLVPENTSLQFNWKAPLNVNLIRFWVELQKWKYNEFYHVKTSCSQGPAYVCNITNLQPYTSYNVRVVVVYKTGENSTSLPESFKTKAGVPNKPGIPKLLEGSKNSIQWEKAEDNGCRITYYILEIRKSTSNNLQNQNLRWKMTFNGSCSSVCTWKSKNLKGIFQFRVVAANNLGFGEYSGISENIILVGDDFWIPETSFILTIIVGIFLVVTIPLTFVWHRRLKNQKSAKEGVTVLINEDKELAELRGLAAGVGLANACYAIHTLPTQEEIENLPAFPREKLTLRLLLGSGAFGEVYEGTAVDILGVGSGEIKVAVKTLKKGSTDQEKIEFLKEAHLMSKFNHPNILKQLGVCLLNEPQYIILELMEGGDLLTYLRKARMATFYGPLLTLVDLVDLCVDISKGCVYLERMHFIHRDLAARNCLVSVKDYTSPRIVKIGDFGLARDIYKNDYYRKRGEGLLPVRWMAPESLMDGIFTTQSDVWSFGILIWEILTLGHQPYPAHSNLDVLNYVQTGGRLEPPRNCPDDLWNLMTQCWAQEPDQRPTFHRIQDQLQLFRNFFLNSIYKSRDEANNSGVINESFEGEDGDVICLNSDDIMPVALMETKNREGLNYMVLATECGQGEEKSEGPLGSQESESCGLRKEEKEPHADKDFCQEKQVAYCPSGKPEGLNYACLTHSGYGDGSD
Chain of NUAK family SNF1-like kinase 2 (Homo sapiens) (Q9H093 whole entry, the tested form may be a part): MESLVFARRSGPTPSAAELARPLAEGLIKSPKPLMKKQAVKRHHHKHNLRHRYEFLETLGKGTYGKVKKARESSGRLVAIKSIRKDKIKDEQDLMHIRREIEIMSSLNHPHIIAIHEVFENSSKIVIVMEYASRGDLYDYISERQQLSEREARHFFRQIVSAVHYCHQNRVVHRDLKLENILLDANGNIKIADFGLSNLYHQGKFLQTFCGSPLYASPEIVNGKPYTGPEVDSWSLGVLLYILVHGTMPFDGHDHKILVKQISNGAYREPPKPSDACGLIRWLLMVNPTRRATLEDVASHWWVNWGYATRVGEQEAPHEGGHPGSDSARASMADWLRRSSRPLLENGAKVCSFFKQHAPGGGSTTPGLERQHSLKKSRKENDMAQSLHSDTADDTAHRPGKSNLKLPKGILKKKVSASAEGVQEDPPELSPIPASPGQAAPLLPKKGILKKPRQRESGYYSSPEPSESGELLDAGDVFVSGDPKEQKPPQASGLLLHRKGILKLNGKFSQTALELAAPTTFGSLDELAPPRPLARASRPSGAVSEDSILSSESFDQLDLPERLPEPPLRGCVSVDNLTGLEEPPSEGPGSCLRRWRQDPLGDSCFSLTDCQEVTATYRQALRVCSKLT

Regarding `Cc1cc(C)c(CNC(=O)c2cc(Br)c3c(c2C)O[C@@](C)([C@H]2CC[C@H](N(C)C)CC2)O3)c(=O)[nH]1`, the inhibition – broadly, the relative decrease from the control value, in per cent – is -3.2% in [1]; -4% in [2]; -6.1% in [3]; -2.7% in [4]; -2% in [5]; -2% in [6]. For the same compound, the inhibition in test [7] is -2.1%; in [8] it was -5.6%; in test [9] it was 3%; in test [10], -1.9%; in test [11] it was 6%; in [12], -5.1%. In addition, the inhibition in [13] is -1%; in test [14], -1.6%; in [15] it was -3.7%; in [16], -1.5%; in test [17], 2.1%; in [18], -2.9%. For the same compound, the inhibition in test [19] was -4.4%; in test [20] it was -5.4%; in test [21], 0.7%; in [22], -2.2%.

For `Cc1cc(C)c(CNC(=O)c2cc(Cl)c3c(c2C)O[C@@](C)([C@H]2CC[C@H](N(C)C)CC2)O3)c(=O)[nH]1` [VALEMETOSTAT], the inhibition in test [1] is -4.3%; in [2], 2.1%; in [3], -4.4%; in [4], -1.9%; in test [5] it was -2.9%; in test [6], 1.6%. For the same compound, the inhibition in [7] was -0.9%; in [8] it was -2.8%; in [9], 2.8%; in [10], -2.3%; in test [11] it was 5.6%; in test [12], -5.5%. Besides, the inhibition in test [13] is -0.2%; in test [14], 2.5%; in test [15] it was -3.7%; in [16], -3.7%; in [17], -1.8%; in [18] it was -4.5%. Moreover, the inhibition in [19] is -5.2%; in test [20] it was -5.9%; in test [21], -2%; in test [22], -3.1%.
